Source: patent US9175282B2, “Cellobiose 2-epimerase, its preparation and uses” (HAYASHIBARA CO., LTD., priority 2009, dated 2015)
Where two headings read alike, the source gives them in different places.

What was measured:
cellobiose 2-epimerase = experiment: Effect of metal ions on the epimerase activity; format: biochemical, Caldicellusiruptor saccharolyticus ATCC43494; details: for Inhibition of the epimerase activity by metal ion: 1 mM
[1] = system: recombinant cellobiose 2-epimerase; experiment: Isomerized saccharides formed from monosaccharides (HPLC); format: biochemical, Caldicellulosiruptor saccharolyticus ATCC43494
Procedure: Reaction products formed from D-glucose, D-galactose, and D-mannose by the action of the cellobiose 2-epimerase of the present invention were investigated. D-Glucose, D-galactose, or D-mannose was dissolved into 50 mM acetate buffer (pH 6.0) to give a final concentration of 20% (w/v) to make into a substrate solution. To 0.1 ml of the substrate solution, 130 units/g-solid substrate for D-glucose and D-mannose (0.1 ml as the enzyme solution), or 500 units/g-solid substrate for D-galactose (0.1 ml as the enzyme solution), of the purified preparation of the recombinant cellobiose 2-epimerase, obtained by the method in Experiment 4-4, was admixed; and followed the enzyme reaction at 60° C. for 48 hours.
After the completion of the reaction, reaction mixture was heated at 100° C. for 10 minutes to stop the reaction. Each reaction mixture was subjected to HPLC analysis for determining the product. HPLC analysis of the products in the reaction mixture was carried out under the following conditions for separating monosaccharides.

[2] = system: recombinant cellobiose 2-epimerase; experiment: Substrate specificity of cellobiose 2-epimerase by TLC; format: biochemical, Caldicellulosiruptor saccharolyticus ATCC43494; parameters: key to Action: −: No product is detected; ±: Some products are slightly detected; +: Some products are detected; ++: Some products are clearly detected; details: for Action: 2% (w/w) substrate, MOPS buffer pH 8.0, 500 units/g-substrate, 60° C., 24 hours, product spot on TLC; for Action of the enzyme on the saccharide: summary of Table 3
Procedure: Substrate specificity of the enzyme was investigated by allowing the purified preparation of the recombinant cellobiose 2-epimerase, obtained by the method of Experiment 4-4, to act on various saccharides. Substrate solutions were prepared by dissolving D-glucose, D-xylose, D-allose, D-ribose, D-galactose, D-fructose, D-mannose, D-psicose, D-tagatose, L-sorbose, L-rhamnose, L-ribose, trehalose, kojibiose, nigerose, isomaltose, neotrehalose, gentiobiose, lactose, sucrose, maltulose, palatinose, maltose, maltotriose, maltotetraose, maltopentaose, maltohexaose, maltoheptaose, cellobiose, cellotriose, cellotetraose, selaginose, isomaltosyl-glucoside, isomaltotriose, panose, isopanose, erlose, maltitol, maltotriitol, methyl-α-glucoside, methyl-β-glucoside, D-glucosamine, D-galactosamine, D-glucuronic acid, N-acetyl-glucosamine, or N-acetyl-galactosamine into MOPS buffer (pH 8.0) to give a final concentration of 2% (w/w) of saccharide and 40 mM buffer.
Then, each of the resulting substrate solutions was further admixed with 500 units/g-substrate, on a dry solid basis, of the purified preparation of recombinant cellobiose 2-epimerase, obtained by the method in Experiment 4-4, and followed by the enzyme reaction at 60° C. for 24 hours. After stopping the reaction by heating the reaction mixture at 100° C. for 10 minutes, each reaction mixture was subjected to TLC analysis under the conditions in Experiment 1-2 to examine the saccharides in each mixture before and after the reaction. The substrate specificity of the enzyme was judged by investigating whether the spot of the reaction product except for the substrate is detected in the TLC chromatogram or not, and the degree of the strength of the visualized spot.

[3] = system: recombinant cellobiose 2-epimerase; experiment: Formation of isomerized saccharides from various saccharides, effect of the amount of enzyme; format: biochemical, Caldicellulosiruptor saccharolyticus ATCC43494; details: for Content of isomerized saccharide in the reaction mixture (%): Epilactose / Content of isomerized saccharide in the reaction mixture (%): Lactulose: GC analysis
Procedure: Each of them was dissolved into 20 mM acetate buffer (pH 6.0), admixed with the purified preparation of the recombinant cellobiose 2-epimerase, obtained by the method in Experiment 4-4, and followed the enzyme reaction under the conditions of 10% (w/v) substrate concentration, 60° C. for 72 hours. The amount of enzyme was set to 130 or 500 units/g-substrate when monosaccharide was used as the substrate, and to 1 or 130 units/g-substrate when disaccharide or trisaccharide was used as the substrate. Each reaction mixture was heated at 100° C. for 10 minutes to stop the reaction and subjected to HPLC analysis to determine the contents of isomerized saccharide, on a dry solid basis. The contents of epilactose and lactulose in the reaction mixture obtained using lactose as substrate were determined by GC analysis described in Experiment 1-2.

[4] = ingested in rat; cited from earlier work
[5] = 500 units/g-substrate, pH 6.0, 60° C., 48 hours
[6] = 500 units/g-substrate, 10% (w/v) substrate, pH 6.0, 60° C., 72 hours
[7] = 130 units/g-substrate, pH 6.0, 60° C., 48 hours
[8] = 130 units/g-substrate, 10% (w/v) substrate, pH 6.0, 60° C., 72 hours
[9] = 1 unit/g-substrate, 10% (w/v) substrate, pH 6.0, 60° C., 72 hours

## [Cl][Al]([Cl])[Cl] [AlCl3]
Cellobiose 2-epimerase
  Inhibition of the epimerase activity by metal ion: inhibited
Cellobiose 2-epimerase; metal salt 1 mM, None = 100
  Relative activity (%): 45%

## [Ba+2].[Cl-].[Cl-] [BaCl2]
Cellobiose 2-epimerase; metal salt 1 mM, None = 100
  Relative activity (%): 108%

## [Ca+2].[Cl-].[Cl-] [CaCl2]
Cellobiose 2-epimerase; metal salt 1 mM, None = 100
  Relative activity (%): 107%

## [Cl-].[Cl-].[Co+2] [CoCl2]
Cellobiose 2-epimerase
  Relative activity (%): 101%

## [Cl][Cu][Cl] [CuCl2]
Cellobiose 2-epimerase
  Inhibition of the epimerase activity by metal ion: almost completely inhibited
Cellobiose 2-epimerase; metal salt 1 mM, None = 100
  Relative activity (%): 1%

## O=C[C@H](O)[C@@H](O)[C@@H](O)[C@H](O)CO [D-Galactose]
[1]
  Action of the enzyme compared with D-glucose and D-mannose: relatively weak
[1]; [5]
  Content (%, w/w) of product D-Tagatose: 8.4 %, w/w
  Content (%, w/w) of product D-Talose: 10.3 %, w/w
[2]
  Action: ±
  Action of the enzyme on the saccharide: slightly acted on
[3]; [6]
  Content of isomerized saccharide in the reaction mixture (%): D-Tagatose: 9.2%
  Content of isomerized saccharide in the reaction mixture (%): D-Talose: 11.0%

## O=C[C@H](O)[C@@H](O)[C@H](O)[C@H](O)CO [D-Glucose]
[1]; [7]
  Content (%, w/w) of product D-Fructose: 3.8 %, w/w
  Content (%, w/w) of product D-Mannose: 20.6 %, w/w
[2]
  Action: +
  Action of the enzyme on the saccharide: acted on
[3]; [8]
  Content of isomerized saccharide in the reaction mixture (%): D-Fructose: 5.0%
  Content of isomerized saccharide in the reaction mixture (%): D-Mannose: 20.9%
[3]; [6]
  Content of isomerized saccharide in the reaction mixture (%): D-Fructose: 9.2%
  Content of isomerized saccharide in the reaction mixture (%): D-Mannose: 23.3%

## O=C[C@@H](O)[C@@H](O)[C@H](O)[C@H](O)CO [D-Mannose]
[1]; [7]
  Content (%, w/w) of product D-Fructose: 5.1 %, w/w
  Content (%, w/w) of product D-Glucose: 41.8 %, w/w
[2]
  Action: +
  Action of the enzyme on the saccharide: acted on
[3]; [8]
  Content of isomerized saccharide in the reaction mixture (%): D-Fructose: 6.6%
  Content of isomerized saccharide in the reaction mixture (%): D-Glucose: 45.8%

## O=C(O)CN(CCN(CC(=O)O)CC(=O)O)CC(=O)O [EDTA]
Cellobiose 2-epimerase; metal salt 1 mM, None = 100
  Relative activity (%): 99%

## [Cl][Fe][Cl] [FeCl2]
Cellobiose 2-epimerase; metal salt 1 mM, None = 100
  Relative activity (%): 35%

## [Cl][Fe]([Cl])[Cl] [FeCl3]
Cellobiose 2-epimerase; metal salt 1 mM, None = 100
  Relative activity (%): 33%

## [Cl][Hg][Cl] [HgCl2]
Cellobiose 2-epimerase
  Inhibition of the epimerase activity by metal ion: almost completely inhibited
Cellobiose 2-epimerase; metal salt 1 mM, None = 100
  Relative activity (%): 1%

## OC[C@H]1O[C@@H](O[C@H]2[C@H](O)[C@@H](O)C(O)O[C@@H]2CO)[C@H](O)[C@@H](O)[C@H]1O (some centres unmarked) [Lactose]
[2]
  Action: ++
  Action of the enzyme on the saccharide: relatively strong specificity
[3]; [9]
  Content of isomerized saccharide in the reaction mixture (%): Epilactose: 32.0%
  Content of isomerized saccharide in the reaction mixture (%): Lactulose: 0.0%
[3]; [8]
  Content of isomerized saccharide in the reaction mixture (%): Epilactose: 12.8%
  Content of isomerized saccharide in the reaction mixture (%): Lactulose: 57.5%
[3]; summary of Table 5
  Action of the enzyme on the substrate: relatively specifically acted

## OC[C@H]1O[C@H](O[C@H]2[C@H](O)[C@@H](O)[C@H](O)O[C@@H]2CO)[C@H](O)[C@@H](O)[C@@H]1O [Maltose]
[2]
  Action: +
  Action of the enzyme on the saccharide: acted on
[3]; [8]
  Content of isomerized saccharide in the reaction mixture (%): Epimaltose: 22.2%
  Content of isomerized saccharide in the reaction mixture (%): Maltulose: 7.7%

## [Cl-].[Cl-].[Mg+2] [MgCl2]
Cellobiose 2-epimerase; metal salt 1 mM, None = 100
  Relative activity (%): 106%

## [Cl][Mn][Cl] [MnCl2]
Cellobiose 2-epimerase; metal salt 1 mM, None = 100
  Relative activity (%): 104%

## [Cl][Ni][Cl] [NiCl2]
Cellobiose 2-epimerase; metal salt 1 mM, None = 100
  Relative activity (%): 103%

## [Cl][Pb][Cl] [PbCl2]
Cellobiose 2-epimerase
  Inhibition of the epimerase activity by metal ion: inhibited
Cellobiose 2-epimerase; metal salt 1 mM, None = 100
  Relative activity (%): 36%

## [Cl-].[Cl-].[Sr+2] [SrCl2]
Cellobiose 2-epimerase; metal salt 1 mM, None = 100
  Relative activity (%): 104%

## NC(CO)(CO)CO [Tris]
Cellobiose 2-epimerase; metal salt 1 mM, None = 100
  Relative activity (%): 93%

## [Cl-].[Cl-].[Zn+2] [ZnCl2]
Cellobiose 2-epimerase
  Inhibition of the epimerase activity by metal ion: almost completely inhibited
Cellobiose 2-epimerase; metal salt 1 mM, None = 100
  Relative activity (%): 1%

## OC[C@H]1O[C@@H](O[C@H]2[C@H](O)[C@H](O)C(O)O[C@@H]2CO)[C@H](O)[C@@H](O)[C@H]1O (some centres unmarked) [epilactose]
[4]
  Amount of short-chain fatty acid in the intestine: increasing the amount of short-chain fatty acid in the intestine
  Calcium absorption in the small intestine: promoting calcium absorption in the small intestine
  Plasma cholesterol level: lowering the plasma cholesterol level

## Maltotriose
[2]
  Action: +
  Action of the enzyme on the saccharide: acted on
[3]; [8]
  Content of isomerized saccharide in the reaction mixture (%): Epimaltotriose: 23.3%
